Assay results published in patent US8501446B2 (Vertex Pharmaceuticals Incorporated, priority 2004, dated 2013).

What was measured:
ROCK I (AA 6-553) = molecular target: T1, ROCK I (AA 6-553) (Homo sapiens, UniProt Q13464); test: ROCK inhibition assay, standard coupled enzyme system ("Enzyme"); type: biochemical; conditions: enzyme-linked assay
T1 construct: ROCK I (AA 6-553)
Experimental: Compounds were screened for their ability to inhibit ROCK I (AA 6-553) activity using a standard coupled enzyme system (Fox et al. (1998) Protein Sci. 7, 2249). Reactions were carried out in a solution containing 100 mM HEPES (pH 7.5), 10 mM MgCl2, 25 mM NaCl, 2 mM DTT and 1.5% DMSO. Final substrate concentrations in the assay were 45 μM ATP (Sigma Chemicals, St Louis, Mo.) and 200 μM peptide (American Peptide, Sunnyvale, Calif.). Reactions were carried out at 30° C. and 45 nM ROCK L. Final concentrations of the components of the coupled enzyme system were 2.5 mM phosphoenolpyruvate, 350 μM NADH, 30 μg/ml pyruvate kinase and 10 μg/ml lactate dehydrogenase.

[1] = molecular target: T2, full length Aurora-A (AA 1-403) (Homo sapiens, UniProt O14965); test: Aurora-A inhibition assay, standard coupled enzyme system; type: biochemical; conditions: average Ki if more than one value determined
T2 construct: full length Aurora-A (AA 1-403)
T2 sequence (O14965 1-403): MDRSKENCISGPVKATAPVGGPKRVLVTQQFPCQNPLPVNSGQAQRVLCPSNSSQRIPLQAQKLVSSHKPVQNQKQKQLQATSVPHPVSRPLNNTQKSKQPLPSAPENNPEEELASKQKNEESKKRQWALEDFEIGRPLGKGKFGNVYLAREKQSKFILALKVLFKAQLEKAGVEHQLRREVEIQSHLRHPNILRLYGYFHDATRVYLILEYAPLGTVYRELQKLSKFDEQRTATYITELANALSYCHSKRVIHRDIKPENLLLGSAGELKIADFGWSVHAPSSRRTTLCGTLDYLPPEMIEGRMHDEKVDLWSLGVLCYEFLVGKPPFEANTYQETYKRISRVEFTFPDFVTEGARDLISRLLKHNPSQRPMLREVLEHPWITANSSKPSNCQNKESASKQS
Experimental: Compounds were screened for their ability to inhibit full length Aurora-A (AA 1-403) activity using a standard coupled enzyme system (Fox et al., Protein Sci. 7, pp. 2249 (1998)). Reactions were carried out in a solution containing 100 mM HEPES (pH 7.5), 10 mM MgCl2, 25 mM NaCl, 300 μM NADH, 1 mM DTT and 3% DMSO. Final substrate concentrations in the assay were 200 μM ATP (Sigma Chemicals, St Louis, Mo.) and 800 μM peptide (LRRASLG, American Peptide, Sunnyvale, Calif.). Reactions were carried out at 30° C. and 35 nM Aurora-A. Final concentrations of the components of the coupled enzyme system were 2.5 mM phosphoenolpyruvate, 200 μM NADH, 60 μg/ml pyruvate kinase and 20 μg/ml lactate dehydrogenase.
An assay stock buffer solution was prepared containing all of the reagents listed above with the exception of ATP and the test compound of interest. The assay stock buffer solution (60 μl) was incubated in a 96 well plate with 2 μl of the test compound of interest at final concentrations spanning 0.002 μM to 30 μM at 30° C. for 10 min. Typically, a 12 point titration was conducted by preparing serial dilutions (from 1 mM compound stocks) with DMSO of the test compounds in daughter plates. The reaction was initiated by the addition of 5 μl of ATP (final concentration 200 μM). Rates of reaction were obtained using a Molecular Devices Spectramax plate reader (Sunnyvale, Calif.) over 10 min at 30° C. The Ki values were determined from the rate data as a function of inhibitor concentration using computerized nonlinear regression (Prism 3.0, Graphpad Software, San Diego, Calif.). Aurora-C activity was screened in a similar manner using Aurora-C protein. Aurora-B activity was screened using a radioactive assay, such as described in Examples 1 and 2, but using Aurora-B protein.

T1 sequence (Q13464 6-553, species assumed): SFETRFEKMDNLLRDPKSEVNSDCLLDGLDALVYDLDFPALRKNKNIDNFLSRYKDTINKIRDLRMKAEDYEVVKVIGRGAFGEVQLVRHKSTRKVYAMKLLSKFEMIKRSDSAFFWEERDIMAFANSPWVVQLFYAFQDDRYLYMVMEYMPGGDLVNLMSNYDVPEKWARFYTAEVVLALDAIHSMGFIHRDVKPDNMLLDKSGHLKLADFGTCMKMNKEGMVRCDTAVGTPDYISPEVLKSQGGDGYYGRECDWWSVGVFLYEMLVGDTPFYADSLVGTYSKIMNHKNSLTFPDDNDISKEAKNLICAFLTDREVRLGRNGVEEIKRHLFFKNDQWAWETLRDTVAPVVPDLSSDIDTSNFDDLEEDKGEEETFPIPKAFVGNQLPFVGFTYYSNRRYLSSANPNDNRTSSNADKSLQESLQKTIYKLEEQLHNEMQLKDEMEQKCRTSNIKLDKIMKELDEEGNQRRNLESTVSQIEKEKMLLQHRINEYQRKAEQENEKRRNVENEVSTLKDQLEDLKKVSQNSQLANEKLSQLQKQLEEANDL

SMILES | Ki (ROCK I (AA 6-553)) | Ki [1]
Clc1cnc2[nH]cc(-c3cccc(NCc4ccc(Cl)c(Cl)c4)n3)c2c1 [Compound 251] | 500 to 5000 nM | < 500 nM
CN(C)c1cccc(-c2c[nH]c3ncc(-c4ccccc4)cc23)n1 [Compound 253] | < 500 nM | < 500 nM
Cc1ccc(CNc2cccc(-c3c[nH]c4ncc(Cl)cc34)n2)cc1 [Compound 254] | 500 to 5000 nM | < 500 nM
CS(=O)(=O)Nc1ccc(-c2cnc3[nH]cc(-c4ccc(C(N)=O)cc4)c3c2)cc1 [Compound 255] | < 500 nM | < 500 nM
CNS(=O)(=O)c1ccc(-c2cnc3[nH]cc(-c4ccc(C(N)=O)cc4)c3c2)cc1 [Compound 256] | < 500 nM | < 500 nM
CC(C)(C)OC(=O)N1CCN(c2cccc(-c3c[nH]c4ncc(Cl)cc34)n2)CC1 [Compound 257] | 500 to 5000 nM | 500 to 5000 nM
COc1ccc(CNc2cccc(-c3c[nH]c4ncc(Cl)cc34)n2)cc1 [Compound 258] | 500 to 5000 nM | < 500 nM
CCCNc1cccc(-c2c[nH]c3ncc(-c4ccccc4)cc23)n1 [Compound 259] | < 500 nM | < 500 nM
Clc1ccc(CNc2cccc(-c3c[nH]c4ncc(-c5ccccc5)cc34)n2)cc1Cl [Compound 261] | 500 to 5000 nM | 500 to 5000 nM
Cc1ccc(CNc2cccc(-c3c[nH]c4ncc(-c5ccccc5)cc34)n2)cc1 [Compound 262] | 500 to 5000 nM | 500 to 5000 nM
Clc1cnc2[nH]cc(-c3cccc(Nc4ccccc4Cl)n3)c2c1 [Compound 263] | 500 to 5000 nM | < 500 nM
Clc1cnc2[nH]cc(-c3cccc(NCCc4ccccc4)n3)c2c1 [Compound 264] | 500 to 5000 nM | < 500 nM
c1ccc(Nc2cccc(-c3c[nH]c4ncc(-c5ccccc5)cc34)n2)cc1 [Compound 265] | 500 to 5000 nM | < 500 nM
Clc1ccccc1Nc1cccc(-c2c[nH]c3ncc(-c4ccccc4)cc23)n1 [Compound 266] | 500 to 5000 nM | < 500 nM
Clc1cnc2[nH]cc(-c3cccc(N4CCNCC4)n3)c2c1 [Compound 267] | < 500 nM | < 500 nM
OCCNc1cccc(-c2c[nH]c3ncc(Cl)cc23)n1 [Compound 270] | 500 to 5000 nM | 500 to 5000 nM
CN(C)CCCNc1cccc(-c2c[nH]c3ncc(Cl)cc23)n1 [Compound 271] | 500 to 5000 nM | < 500 nM
Clc1cccc(Nc2cccc(-c3c[nH]c4ncc(Cl)cc34)n2)c1 [Compound 273] | 500 to 5000 nM | < 500 nM
CN(Cc1ccccc1)c1cccc(-c2c[nH]c3ncc(Cl)cc23)n1 [Compound 274] | 500 to 5000 nM | < 500 nM
CN1CCN(c2cccc(-c3c[nH]c4ncc(Cl)cc34)n2)CC1 [Compound 275] | 500 to 5000 nM | 500 to 5000 nM
CC(=O)N1CCN(c2cccc(-c3c[nH]c4ncc(Cl)cc34)n2)CC1 [Compound 276] | 500 to 5000 nM | < 500 nM
OCCNc1cccc(-c2c[nH]c3ncc(-c4ccccc4)cc23)n1 [Compound 277] | < 500 nM | < 500 nM
CNc1cccc(-c2c[nH]c3ncc(-c4ccccc4)cc23)n1 [Compound 278] | < 500 nM | < 500 nM
CN(c1ccccc1)c1cccc(-c2c[nH]c3ncc(Cl)cc23)n1 [Compound 284] | 500 to 5000 nM | 500 to 5000 nM
C[C@H](Nc1nc(-c2c[nH]c3ncc(Cl)cc23)ncc1F)c1ccccc1 [Compound 286] | 500 to 5000 nM | < 500 nM
Clc1cnc2[nH]cc(-c3cccc(NC4CCCC4)n3)c2c1 [Compound 289] | 500 to 5000 nM | < 500 nM
CNc1cccc(-c2cn(C)c3ncc(Cl)cc23)n1 [Compound 292] | 500 to 5000 nM | > 5000 nM

SMILES | Ki (ROCK I (AA 6-553)) | Ki [1]
c1ccc(-c2cnc3[nH]cc(-c4cccc(N5CCCC5)n4)c3c2)cc1 [Compound 293] | 500 to 5000 nM | 500 to 5000 nM
O=C(Nc1cccc(-c2c[nH]c3ncc(Cl)cc23)n1)c1ccccn1 [Compound 294] | 500 to 5000 nM | < 500 nM
NC(=O)c1ccc(Nc2nc(-c3c[nH]c4ncc(Cl)cc34)ncc2F)cc1 [Compound 295] | 500 to 5000 nM | < 500 nM
O=C(Nc1cccc(-c2c[nH]c3ncc(Cl)cc23)n1)c1cccnc1 [Compound 296] | 500 to 5000 nM | < 500 nM
COc1ccc(CNc2cccc(-c3c[nH]c4ncc(Cl)cc34)n2)cc1OC [Compound 297] | 500 to 5000 nM | < 500 nM
CNc1cccc(-c2c[nH]c3ncc(Cl)cc23)n1 [Compound 298] | 500 to 5000 nM | 500 to 5000 nM
Fc1cnc(-c2c[nH]c3ncc(Cl)cc23)nc1Nc1ccc(-n2ccnc2)cc1 [Compound 301] | 500 to 5000 nM | 500 to 5000 nM
COC(=O)c1cnc2[nH]cc(-c3ncc(F)c(N[C@@H](C)c4ccc(F)cc4)n3)c2c1 [Compound 307] | < 500 nM | < 500 nM
Fc1cnc(-c2c[nH]c3ncc(Cl)cc23)nc1SCc1ccc(Cl)cc1 [Compound 308] | 500 to 5000 nM | 500 to 5000 nM
CNC(=O)c1cnc2[nH]cc(-c3ncc(F)c(N[C@@H](C)c4ccc(F)cc4)n3)c2c1 [Compound 309] | 500 to 5000 nM | 500 to 5000 nM
CC(Nc1nc(-c2c[nH]c3ncc(Cl)cc23)ncc1F)c1ccc(Cl)cc1 (stereo not drawn) [Compound 311] | 500 to 5000 nM | < 500 nM
C[C@@H](Nc1nc(-c2c[nH]c3ncc(Cl)cc23)ncc1F)c1ccc(N)cc1 [Compound 313] | 500 to 5000 nM | < 500 nM
Fc1cnc(-c2c[nH]c3ncc(Cl)cc23)nc1NCc1ccncc1 [Compound 318] | 500 to 5000 nM | < 500 nM
C[C@H](Nc1nc(-c2c[nH]c3ncc(Cl)cc23)ncc1F)c1cccc(OCC(=O)O)c1 [Compound 336] | 500 to 5000 nM | < 500 nM
C[C@H](Nc1nc(-c2c[nH]c3ncc(Cl)cc23)ncc1F)C(=O)N(C)C [Compound 337] | 500 to 5000 nM | < 500 nM
C[C@H](Nc1nc(-c2c[nH]c3ncc(Cl)cc23)ncc1F)C(=O)NC1CC1 [Compound 338] | 500 to 5000 nM | < 500 nM
C[C@H](Nc1nc(-c2c[nH]c3ncc([N+](=O)[O-])cc23)ncc1F)c1ccc(F)cc1 [Compound 342] | 500 to 5000 nM | < 500 nM
Fc1cnc(-c2c[nH]c3ncc(Cl)cc23)nc1NC1CCNC1 (stereo not drawn) [Compound 344] | < 500 nM | < 500 nM
C[C@H](Nc1nc(-c2c[nH]c3ncc(Cl)cc23)ncc1F)C(=O)OC(C)(C)C [Compound 351] | 500 to 5000 nM | < 500 nM
C[C@H](Nc1nc(-c2c[nH]c3ncc(Br)cc23)ncc1F)c1ccc(F)cc1 [Compound 357] | 500 to 5000 nM | < 500 nM
C[C@H](Nc1nc(-c2c[nH]c3ncc(Cl)cc23)ncc1F)C(=O)O [Compound 360] | 500 to 5000 nM | 500 to 5000 nM
CC(C)NC(=O)[C@H](C)Nc1nc(-c2c[nH]c3ncc(Cl)cc23)ncc1F [Compound 363] | 500 to 5000 nM | < 500 nM
CC(C)CNC(=O)[C@H](C)Nc1nc(-c2c[nH]c3ncc(Cl)cc23)ncc1F [Compound 364] | 500 to 5000 nM | < 500 nM
C[C@H](Nc1nc(-c2c[nH]c3ncc(Cl)cc23)ncc1F)C(=O)NCCF [Compound 365] | 500 to 5000 nM | < 500 nM
Fc1cnc(-c2c[nH]c3ncc(Cl)cc23)nc1NCC1CCOCC1 [Compound 366] | 500 to 5000 nM | < 500 nM
CCNC(=O)[C@H](C)Nc1nc(-c2c[nH]c3ncc(Cl)cc23)ncc1F [Compound 367] | 500 to 5000 nM | < 500 nM
CN1CCC(CNc2nc(-c3c[nH]c4ncc(Cl)cc34)ncc2F)CC1 [Compound 372] | 500 to 5000 nM | < 500 nM
